From patent US20090298903A1, “USE OF TETRAMIC ACID DERIVATIVES FOR INSECT CONTROL” (priority 2006, published 2009) come the findings set out here.

Structures are written as SMILES.

Common to all, as to assay type: in vivo
The subject of assay [1] is oriental fruit moth (Laspeyresia molesta). The experiment in a line: Example 28: peach trees against oriental fruit moth. The following applies: 41 d after treatment, Pyrifroxyfen (35 WP) 123, Acetamiprid (30 SG) 168, (I-4) (150 OD) 153 g a.s./ha. As to the method:
Approx. 10-year-old peach trees are treated, in four replications, against the oriental fruit moth (Laspeyresia molesta). The application is carried out with a knapsack sprayer which is operated with pressurized air. Here, the active substance (I-4) (150 OD) is tested against the commercial standards Pyriproxyfen (35 WP) and Acetamiprid (30 SG) at the specified application rates. The water application rate is 935 l/ha.
The test is evaluated 41 days after the treatment by scoring the destruction rate of the animals on the trees.

Assay [2] relates to apple capsid bug (Plesiocoris rugicollis). Kind of assay: Example 1B: apple trees against apple capsid bug. Conditions: 37 d after treatment, larvae on twigs, Deltamethrin (EC 025) 3.75, (I-4) (150 OD) 30 g a.s./ha/m crown level. How it is done: Apple trees cv. “Holsteiner Cox” which are approximately 14 years old are treated, in 3 replications, against the apple capsid bug (Plesiocoris rugicollis). Here, the active substance Example (I-4) (150 OD) is tested at the specified application rate against the commercial standard Deltamethrin liquid (EC 025) at the specified application rate. The application is carried out with a knapsack sprayer. Here, the treatment is effected with a water application rate of 500 l/ha/m crown level.
The test is evaluated 37 days after the treatment by scoring the destruction of the larvae on the twigs with the aid of the Abbott method.

For assay [3], the system named is Leptinotarsa decemlineata. Kind of assay: Example 23: potatoes against Leptinotarsa decemlineata. As to the method:
Plots approx. 10 m^2 in size which are planted with potatoes “Quarta” are treated, in three replications, against Leptinotarsa decemlineata. The application is carried out with a knapsack sprayer operated with pressurized air. Here, the active substance Example (I-4) (240 SC), in a tank mix together with 0.2% a.s. rapeseed oil methyl ester (500 EW) and the commercial standard Deltamethrin (100 EC), is tested at the specified application rate. The water application rate is 300 l/ha.
The test is evaluated 3, 8 and 20 days after the treatment by scoring the destruction rate of the animals (larvae) on the plants.

The subject of assay [4] is Ceutorhynchus napi. Kind of assay: Example 26-A: oilseed rape against Ceutorhynchus napi. Conditions: 55 d after treatment, larvae, Deltamethrin (25 EC) 5, (I-4) (+ 0.2% rapeseed oil methyl ester) 72, Thiacloprid (OD 240) 72, Lambda-cyhalothrin 5 g a.s./ha. As to the method: Plots approx. 25 m^2 in size which are planted with oilseed rape cv. “Artus” are treated, in four replications, against Ceutorhynchus napi. The application is carried out with a motor-operated knapsack sprayer. Here, the active substance Example (I-4), in a tank mix with 0.2% a.s. rapeseed oil methyl ester (500 EW) and the commercial standards Deltamethrin (25 EC), lambda-cyhalothrin (S100) and Thiacloprid (OD 240), is tested at the specified application rates. The water application rate is 250 l/ha.
The test is evaluated 55 days after the treatment by scoring the destruction rate of the larvae on the plants.

In assay [5] the test system is Thrips tabaci. Kind of assay: Example 6: onions against Thrips tabaci. The following applies: population on leaves. As to the method: Plots 15 m^2 in size which are planted with onions are treated, in two replications, against Thrips tabaci. The application is effected with a knapsack sprayer which is operated with pressurized air. Here, the active substances Example (I-4), in a tank mix together with 0.2% a.s. rapeseed oil methyl ester (500 EW) and the commercial standard dimethoate and (380 EC), are tested at the specified application rates in a tank mix with 0.9% a.s. E-actipron (900 EC). The water application rate is 300 l/ha.
The test was evaluated 43 and 62 days after the treatment by scoring the destruction rate of the population on the leaves.

The test system of assay [6] is Rhagoletis cerasi. The experiment in a line: Example 21: cherry trees against Rhagoletis cerasi. Conditions: 23 d after treatment 2, larvae on fruits, Dimethoate (400 EC) 200, (I-4) (150 OD) 75 g a.s./ha/m crown level. As to the method: Cherry trees cv. “Van” which are approximately 26 years old are treated, in three replications, against Rhagoletis cerasi. The application is carried out with an atomizer. Here, the active substance Example (I-4) (150 OD) and the commercial standard dimethoate (400 EC) are applied at the specified application rates. Two applications are carried out at an interval of 6 days with a water application rate of 500 l/ha/m crown level.
The test is evaluated 23 days after treatment 2 by scoring the destruction rates of the animals (larvae) on the fruits with the aid of the Abbott formula.

For assay [7], the system named is Caliothrips phaseoli. The experiment in a line: Example 3: courgettes against Caliothrips phaseoli. The following applies: 8 d after treatment, nymphs on 5 leaves, Endosulfan (350 EC) 525, (I-4) (240 SC + 0.1% rapeseed oil methyl ester) 72 g a.s./ha. As to the method:
Plots approx. 22 m^2 in size which are planted with courgettes cv. “Italiana negra” are treated, in three replications, against Caliothrips phaseoli. The application is effected with a motor-driven knapsack sprayer. Here, the active substance Example (I-4) (240 SC), in a tank mix together with 0.1% a.s. rapeseed oil methyl ester (500 EW) and the commercial standard endosulfan (350 EC), is tested at the specified application rates. The water application rate is approx. 510 l/ha.
The test is evaluated 8 days after the treatment by scoring the destruction of the animals (nymphs) on 5 leaves.

Assay [8] has as its system Dasineura pyri. The experiment in a line: Example 19b): pear trees against Dasineura pyri. The following applies: 9 d after treatment 2, larvae in rolled leaves, Endosulfan (350 EC) 472.5, (I-4) as 240 SC + Mero (0.1% rapeseed oil methyl ester) 120 g a.s./ha/m crown level. How it is done:
Fully-grown pear trees cv. “Conference” of crown height approx. 3.5 m are treated, in four replications, against Dasineura pyri. Here, the active substance Example (I-4) is tested as (150 OD) and (240 SC) together with 0.1% a.s. rapeseed oil methyl ester (Mero 733 1R) in a tank mix at the specified application rate against the commercial standard Endosulfan (350 EC) at the specified application rate. The application is carried out with a spray diffuser. Here, the treatment is effected with a water application rate of 1000 l/ha/m crown level. Two applications are carried out at an interval of 7 days.
The test is evaluated 9 days after treatment 2 by scoring the destruction rate of the larvae in the rolled leaves, using the Abbott method.

The test system of assay [9] is Dasineura mali. The experiment in a line: Example 19 a): apple trees against Dasineura mali. The following applies: 59 d after treatment; larvae, apple twigs; Pirimicarb (50 WG) 125, (I-4) (100 OD) 72 g a.s./ha/m crown level. As to the method: Apple trees cv. “Elan” which are approximately 16 years old are treated, in 3 replications, against the Dasineura mali. Here, the active substance Example (I-4) (100 OD) is tested at the specified application rate against the commercial standard and Pirimicarb (50 WG) at the specified application rate. The application is carried out with a spray diffuser. Here, the treatment is effected with a water application rate of 1000 l/ha/m crown level.
The test is evaluated 59 days after the treatment by scoring the destruction of the larvae on the basis of the adults present on the twigs with the aid of the Abbott method.

For assay [10], the system named is Thrips tabaci. Kind of assay: Example 11: dwarf beans against Thrips tabaci. As to the method:
Plots approx. 26 m^2 in size which are planted with dwarf beans are treated 16 days after emergence against Thrips tabaci, in four replications. The application is carried out with a knapsack sprayer which is operated with pressurized air. Here, the active substances Example (I-2) (240 SC) (I-4) (240 SC) and Example (I-9) (240 SC), in a tank mix with 0.1% a.s. rapeseed oil methyl ester (500 EW), are tested against the commercial standard Profenofos (720 EC) at the specified application rates. The water application rate is 1000 l/ha. Two applications are carried out at an interval of 10 days.
The test is evaluated 5 and 11 days after the first treatment by scoring the destruction rate of the nymphs on the leaves.

Assay [11] relates to Empoasca biguttula. The experiment in a line: Example 16: aubergines against Empoasca biguttula. How it is done:
Plots 10 m^2 in size which are planted with aubergines are treated, in three replications, against Empoasca biguttula. The application is carried out with a knapsack sprayer which is operated with pressurized air. Here, the active substance Example (I-4) (150 OD) is tested against the commercial standards Imidacloprid (SL 100) and Profenofos (500 EC) at the specified application rates. Two applications are carried out at an interval of 7 days. The water application rate is 750 l/ha.
The test is evaluated 2, 6 and 13 days after the first treatment by scoring the destruction rates of the animals (nymphs) on the plants.

Assay [12] has as its system flea beetles (Phyllotreta sp.). The experiment in a line: Example 24: aubergines against flea beetles. The following applies: 7 d after the last of four treatments, larvae, Imidacloprid (100 SL) 100, (I-4) (100 OD) 70, Profenofos (500 EC) 500 g a.s./ha. As to the method: Plots approx. 12 m^2 in size which are planted with aubergines cv. “DLP” are treated, in three replications, against flea beetles (Phyllotreta sp.). The application is carried out with a knapsack sprayer which is operated with pressurized air. Here, the active substance Example (I-4) (100 OD) and the commercial standards Imidacloprid (100 SL) and Profenofos (500 EC) are applied at the specified application rates. Four applications are carried out at intervals of 7, 8 and 10 days, with a water application rate of 750 l/ha.
The test is evaluated 7 days after the last treatment by scoring the destruction rate of the larvae on the plants.

Assay [13] deals with Pegomya spp. Kind of assay: Example 17: winter wheat against Pegomya spp. The following applies: 3 days after the last of two treatments (interval 7 days), larvae, Thiacloprid (240 OD) 72, (I-4) (240 SC + 0.2% rapeseed oil methyl ester) 96 g a.s./ha. As to the method:
Plots approx. 25 m^2 in size which are planted with winter wheat cv. “Capfern” are treated, in four replications, against Pegomya spp. The application is carried out with a knapsack sprayer which is operated with pressurized air. Here, the active substance Example (I-4) (240 SC), in a tank mix with 0.2% a.s. rapeseed oil methyl ester (500 EW) and the commercial standard Thiacloprid (240 OD), is tested at the specified application rates. Two applications are carried out at an interval of 7 days. The water application rate is 350 l/ha.
The test is evaluated 3 days after the last treatment by scoring the destruction rate of the larvae on the plants.

`C/C(=N\C#N)N(C)Cc1ccc(Cl)nc1` [Acetamiprid]: the “Efficacy (% Abbott) 41 d” value in assay [1] is listed as 35.8 % Abbott.
With `CC1(C)[C@H](C(=O)O[C@H](C#N)c2cccc(Oc3ccccc3)c2)[C@@H]1C=C(Br)Br` [Deltamethrin], the “Efficacy (%) Abbott 37 d” value in assay [2] is 78%. Further, in [3] (3 d after treatment, larvae, Deltamethrin (100 EC) 75, (I-4) (240 SC + 0.2% rapeseed oil methyl ester) 72 g a.s./ha), the “Efficacy (% Abbott) 3 d” value is 100 % Abbott. For the same compound, in assay [3] (8 d after treatment, Deltamethrin 75, (I-4) 72 g a.s./ha), the “Efficacy (% Abbott) 8 d” value turned out to be 100 % Abbott. Moreover, the “Efficacy (% Abbott) 20 d” value in [3] (20 d after treatment, Deltamethrin 75, (I-4) 72 g a.s./ha) came out at 100 % Abbott. In addition, the “Efficacy (% Abbott) 55 d” value in assay [4] is 77.1 % Abbott.
Consider `CNC(=O)CSP(=S)(OC)OC` [Dimethoate, dimethoate], for which the “Efficacy (% Abbott) 43 d” value in assay [5] (43 d after treatment, Dimethoate (380 EC + 0.9% E-actipron) 380, (I-4) (+ 0.2% rapeseed oil methyl ester) 96 g a.s./ha) is reported as 64.5 % Abbott. For the same compound, the “Efficacy (% Abbott) 62 d” value in assay [5] (62 d after treatment, Dimethoate 380, (I-4) 96 g a.s./ha) was found to be 74.8 % Abbott. The “Efficacy (% Abbott) 23 d” value in [6] came to 100 % Abbott.
Take `O=S1OCC2C(CO1)C1(Cl)C(Cl)=C(Cl)C2(Cl)C1(Cl)Cl` (stereo not drawn) [Endosulfan, endosulfan]: the “Efficacy (% Abbott) 8 d” value in assay [7] amounted to 67.0 % Abbott. Further, in [8], the “Efficacy (% Abbott) 9 d” value is 71.6 % Abbott.
Consider `Cc1nc(N(C)C)nc(OC(=O)N(C)C)c1C` [Pirimicarb], for which the “Efficacy (%) Abbott 59 d” value in [9] is recorded as 0%.
Take `CCCSP(=O)(OCC)Oc1ccc(Br)cc1Cl` (stereo not drawn) [Profenofos]: the “Efficacy (% Abbott) 5 d” value in assay [10] (5 d after first treatment, nymphs on leaves, Profenofos (720 EC) 1300, (I-9) 54, (I-2) 54, (I-4) 60 g a.s./ha, 240 SC + 0.1% rapeseed oil methyl ester) amounted to 80 % Abbott. Further, the “Efficacy (% Abbott) 11 d” value in [10] (11 d after first treatment (second application at 10 days), Profenofos 1300, (I-9) 54, (I-2) 54, (I-4) 60 g a.s./ha) was 75 % Abbott. In assay [11] (2 d after first treatment, nymphs, Imidacloprid (SL 100) 30, (I-4) (150 OD) 50, Profenofos (500 EC) 500 g a.s./ha, two applications, interval 7 days), the “Efficacy (% Abott) 2 d” value amounted to 41.3 % Abott. In addition, the “Efficacy (% Abott) 6 d” value in [11] (6 d after first treatment, Imidacloprid 30, (I-4) 50, Profenofos 500 g a.s./ha) was 65.1 % Abott. In assay [11] (13 d after first treatment, Imidacloprid 30, (I-4) 50, Profenofos 500 g a.s./ha), the “Efficacy (% Abott) 13 d” value came out at 53.8 % Abott. Also, the “Efficacy (% Abbott) 7 d” value in [12] was 84 % Abbott.
With `CC(COc1ccc(Oc2ccccc2)cc1)Oc1ccccn1` (stereo not drawn) [Pyrifroxyfen, Pyriproxyfen], the “Efficacy (% Abbott) 41 d” value in assay [1] is listed as 39.0 % Abbott.
Turning to `N#C/N=C1\SCCN1Cc1ccc(Cl)nc1` [Thiacloprid], the “Efficacy (% Abbott) 10 d” value in assay [13] was 100 % Abbott. The “Efficacy (% Abbott) 55 d” value in [4] came out at 52.4 % Abbott.
